Measurements from patent US8821922B2, “Compositions and methods for polymer-caged liposomes” (Northwestern University, priority 2007, dated 2014).

Test system: KB epidermoid carcinoma cells
Test: Cytotoxicity study of doxorubicin-loaded liposomes (Guava ViaCount Assay)
Assay type: cell-based
Details: Homo sapiens, 2 h exposure, further 48 h in fresh medium, viable cells counted by Guava ViaCount
Protocol: Cytotoxictity assay were conducted using the Guava ViaCount Assay system.
Initially, acetylene-functionalized PCLs were prepared using propargyl-modified diamine cross-linkers. Azido-poly(ethylene glycol)-modified folates were then conjugated to the acetylene groups on the surface of PCLs catalyzed by Cu(I) (FIG. 9) to present folate groups on the PCL surface. The folate conjugation to doxorubicin-loaded PCLs indeed increased the drug efficacy against cancer cells as shown through an in vitro model study against KB epidermoid carcinoma cells.
KB cells were continuously cultured in folic acid-free medium supplemented with 10% heat-inactivated fetal bovine serum at 37° C. in a humidified atmosphere containing 5% CO2. The cells were seeded into several 48-well plates at 100,000 cells per well. The plates were then returned to the incubator and the cells were allowed to grow to confluence for 24 h. The media in the wells were replaced with the pre-prepared growth medium-drug-loaded PCL mixture (200 μL of solution at the appropriate Doxorubicin concentrations). The PCL-treated cell cultures were then further incubated for 2 h in a humidified atmosphere containing 5% CO2 at 37° C., after which the growth medium—drug-loaded PCL mixture was removed by aspiration. […] The viable cells were then counted by Guava ViaCount Assay.

With COc1cccc2c1C(=O)c1c(O)c3c(c(O)c1C2=O)C[C@@](O)(C(=O)CO)C[C@@H]3O[C@H]1C[C@H](N)[C@H](O)[C@H](C)O1 [free DXR, doxorubicin] the IC50 was 100 nM.
